From US10016343B2, “Solid stick antiperspirant compositions” (The Procter & Gamble Company, priority 2013, dated 2018)

Test: Hygroscopicity (equilibrium moisture pick up) of antiperspirant active
Assay type: physicochemical
Conditions: 86% RH, 20° C., 5 days
Experimental: One way to evaluate the hygroscopic nature of an antiperspirant active is to determine the equilibrium moisture pick up of the active after 5 days in a controlled relative humidity environment. Specific humidity chambers can be created placing saturated salt solutions in desiccators at a specific temperature. Different salts are used to create different humidities, for example potassium chloride can be used to make an 86% relative humidity (RH) environment at 20° C. In general there is an increase in moisture pick up as humidity is increased for the antiperspirant actives shown, however there are clear differences in slope and amount of moisture pick up at high humidity. Materials with higher slope and larger increases at high humidity (i.e. 86% RH) are considered to be more hygroscopic. The aluminum zirconium trichlorohydrate active (metal to chloride ratio=1.6) from Inventive Example 1 is the least hygroscopic (28% moisture pick up at 86% RH) with the aluminum zirconium tetrachlorohydrate active (metal to chloride ratio=1.2) being substantially more hygroscopic (40% moisture pick up at 86% RH). […] This may explain the substantial difference observed in the amount of sweat measured between Inventive Examples 1 and 2. […]

Substance | moisture pick up (hygroscopicity) [%]
aluminum zirconium trichlorohydrate | 28
aluminum zirconium tetrachlorohydrate | 40
